One assay concerns the target Src (Homo sapiens, UniProt P12931). Description: Kinase selectivity assay, Src. The class given is biochemical. The following applies: Table 3 selectivity profile.
A further assay addresses T1, EphB4 (Homo sapiens, UniProt P54760).
T1 sequence (P54760 16-987): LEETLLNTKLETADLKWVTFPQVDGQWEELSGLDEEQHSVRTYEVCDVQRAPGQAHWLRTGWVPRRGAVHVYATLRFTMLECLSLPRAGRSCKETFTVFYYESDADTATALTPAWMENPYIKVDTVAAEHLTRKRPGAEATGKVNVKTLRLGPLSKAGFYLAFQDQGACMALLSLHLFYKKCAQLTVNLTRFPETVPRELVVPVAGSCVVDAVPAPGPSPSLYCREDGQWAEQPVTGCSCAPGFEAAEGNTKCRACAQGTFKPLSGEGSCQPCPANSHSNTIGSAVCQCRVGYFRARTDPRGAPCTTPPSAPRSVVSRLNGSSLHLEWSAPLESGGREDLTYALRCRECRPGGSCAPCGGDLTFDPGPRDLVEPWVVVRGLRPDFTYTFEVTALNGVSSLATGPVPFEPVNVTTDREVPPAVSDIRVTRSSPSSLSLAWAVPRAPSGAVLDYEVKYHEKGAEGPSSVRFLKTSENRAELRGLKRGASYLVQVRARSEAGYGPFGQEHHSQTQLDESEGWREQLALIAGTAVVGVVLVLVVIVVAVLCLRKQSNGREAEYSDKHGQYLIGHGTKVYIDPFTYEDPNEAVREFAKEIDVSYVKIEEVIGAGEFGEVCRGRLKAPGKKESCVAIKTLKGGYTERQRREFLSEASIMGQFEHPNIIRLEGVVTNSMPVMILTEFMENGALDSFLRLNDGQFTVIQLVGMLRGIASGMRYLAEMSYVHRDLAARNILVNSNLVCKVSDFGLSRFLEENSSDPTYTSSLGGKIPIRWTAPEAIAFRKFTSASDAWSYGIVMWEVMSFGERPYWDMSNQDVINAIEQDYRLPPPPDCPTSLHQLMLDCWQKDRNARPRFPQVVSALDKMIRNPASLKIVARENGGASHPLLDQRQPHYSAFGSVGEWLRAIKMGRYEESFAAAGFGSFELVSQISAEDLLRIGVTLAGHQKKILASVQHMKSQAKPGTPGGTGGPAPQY
Description: ADP-Glo kinase inhibition assay, EphB4. The assay is classed as biochemical. Conditions: Table 1, ATP 50 μM, read-out: EphB4 inhibitory activity (IC50). Here is the method:
(§1) Tyrosine kinase inhibition were tested by luminescent ADP-Glo^TM assay.
(§2) The kinase assay was performed in duplicate in a reaction mixture of final volume of 10 μL. […] The assay plate was incubated at 30 °C for 1 h. After the plate was cooled at room temperature for 5 min, 5 μL of ADP-Glo reagent was added into each well to stop the reaction and consume the remaining […] within 40 min. At the end, 10 μL of kinase detection reagent was added into the well and incubated for 30 min to produce a luminescence signal. […] The assay plate was incubated at 30 °C for 4 h. After the plate was cooled at room temperature for 5 min, 5 μL of ADP-Glo reagent was added into each well to stop the reaction and consume the remaining […] within 1 h. At the end, 10 μL of kinase detection reagent was added into the well and incubated for 30 min to produce a luminescence signal. The luminescence was read by VICTOR-X multi- label plate reader. The signal was correlated with the amount of […] present in the reaction and was […] with the kinase activity.
On the technique in general: ADP-Glo first removes unused ATP, then detects ADP through luciferase.

Another assay has as its target VEGFR-2 (Homo sapiens, UniProt P35968). The experiment in a line: ADP-Glo kinase inhibition assay, VEGFR-2. The class given is biochemical. Conditions: Table 1, ATP 50 μM, read-out: VEGFR-2 inhibitory activity (IC50). As for the experimental part: as §1, §2
A further assay deals with EGFR (Homo sapiens, UniProt P00533). Description: Kinase selectivity assay, EGFR. The class given is biochemical. Conditions: Table 3 selectivity profile.
EGFR, sequence (P00533 25-1210, species assumed): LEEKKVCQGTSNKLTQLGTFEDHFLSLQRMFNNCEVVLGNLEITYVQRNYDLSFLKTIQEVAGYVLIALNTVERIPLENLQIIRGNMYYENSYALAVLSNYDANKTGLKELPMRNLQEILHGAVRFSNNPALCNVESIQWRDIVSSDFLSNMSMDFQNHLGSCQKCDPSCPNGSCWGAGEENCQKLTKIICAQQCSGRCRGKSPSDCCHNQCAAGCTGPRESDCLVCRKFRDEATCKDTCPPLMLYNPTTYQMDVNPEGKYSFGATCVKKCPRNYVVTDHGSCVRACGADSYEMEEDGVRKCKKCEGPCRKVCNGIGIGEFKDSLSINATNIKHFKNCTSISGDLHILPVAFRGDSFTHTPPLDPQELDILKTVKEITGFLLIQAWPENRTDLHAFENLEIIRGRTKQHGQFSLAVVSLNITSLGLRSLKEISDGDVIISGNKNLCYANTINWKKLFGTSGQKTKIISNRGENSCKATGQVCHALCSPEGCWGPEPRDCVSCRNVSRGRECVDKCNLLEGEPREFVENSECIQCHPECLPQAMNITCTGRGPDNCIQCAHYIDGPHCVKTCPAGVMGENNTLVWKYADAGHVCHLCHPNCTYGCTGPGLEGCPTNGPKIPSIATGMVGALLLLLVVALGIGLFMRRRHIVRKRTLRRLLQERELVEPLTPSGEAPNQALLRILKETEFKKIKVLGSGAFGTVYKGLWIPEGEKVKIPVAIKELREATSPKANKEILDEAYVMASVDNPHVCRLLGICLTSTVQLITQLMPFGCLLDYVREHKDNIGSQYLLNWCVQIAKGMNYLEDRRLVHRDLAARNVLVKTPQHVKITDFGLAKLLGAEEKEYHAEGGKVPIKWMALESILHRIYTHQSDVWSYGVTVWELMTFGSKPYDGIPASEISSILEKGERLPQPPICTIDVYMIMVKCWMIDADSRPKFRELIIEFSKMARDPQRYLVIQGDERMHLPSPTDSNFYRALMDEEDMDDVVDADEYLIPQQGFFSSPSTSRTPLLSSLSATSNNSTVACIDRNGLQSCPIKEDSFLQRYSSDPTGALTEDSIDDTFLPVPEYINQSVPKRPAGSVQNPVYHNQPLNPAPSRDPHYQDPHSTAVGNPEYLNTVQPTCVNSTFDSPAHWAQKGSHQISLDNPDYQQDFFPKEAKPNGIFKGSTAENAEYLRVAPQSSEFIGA
The test system of the next assay is EA.hy926. The experiment in a line: MTT anti-proliferative assay against human vascular endothelial cell. The class given is cell-based. The following applies: EA.hy 926, 48 h treatment. As for the experimental part:
Growth inhibitory activities were evaluated against human vascular endothelial cell (EA.hy926)[25]. Thirteen selected title compounds were tested using MTT assay to assess cell proliferation. Exponentially growing cells were harvested and plated in 96-well plates at a concentration of […] cells/well, and then incubated for 24 h at 37 °C. The cells were treated with title compounds respectively at various concentrations for 48 h. Then, […] fresh MTT (5 mg/mL) was added to each well and incubated for 4 h at 37 °C. Supernatant was discarded, and […] DMSO was added to each well. Absorbance values were determined by a microplate reader (Bio-Rad Instruments) at 490 nm. The IC50 values were calculated according to inhibition ratios.
On the technique in general: Tetrazolium assays rely on reduction of a dye to a coloured formazan, in cell work by metabolically active cells.

The target of another assay is TIE-2 (Homo sapiens, UniProt Q02763). Description: ADP-Glo kinase inhibition assay, TIE-2. Conditions: Table 1, ATP 50 μM, read-out: Tie-2 inhibitory activity (IC50). The assay is classed as biochemical. As for the experimental part: as §1, §2
TIE-2, sequence (Q02763 23-1124): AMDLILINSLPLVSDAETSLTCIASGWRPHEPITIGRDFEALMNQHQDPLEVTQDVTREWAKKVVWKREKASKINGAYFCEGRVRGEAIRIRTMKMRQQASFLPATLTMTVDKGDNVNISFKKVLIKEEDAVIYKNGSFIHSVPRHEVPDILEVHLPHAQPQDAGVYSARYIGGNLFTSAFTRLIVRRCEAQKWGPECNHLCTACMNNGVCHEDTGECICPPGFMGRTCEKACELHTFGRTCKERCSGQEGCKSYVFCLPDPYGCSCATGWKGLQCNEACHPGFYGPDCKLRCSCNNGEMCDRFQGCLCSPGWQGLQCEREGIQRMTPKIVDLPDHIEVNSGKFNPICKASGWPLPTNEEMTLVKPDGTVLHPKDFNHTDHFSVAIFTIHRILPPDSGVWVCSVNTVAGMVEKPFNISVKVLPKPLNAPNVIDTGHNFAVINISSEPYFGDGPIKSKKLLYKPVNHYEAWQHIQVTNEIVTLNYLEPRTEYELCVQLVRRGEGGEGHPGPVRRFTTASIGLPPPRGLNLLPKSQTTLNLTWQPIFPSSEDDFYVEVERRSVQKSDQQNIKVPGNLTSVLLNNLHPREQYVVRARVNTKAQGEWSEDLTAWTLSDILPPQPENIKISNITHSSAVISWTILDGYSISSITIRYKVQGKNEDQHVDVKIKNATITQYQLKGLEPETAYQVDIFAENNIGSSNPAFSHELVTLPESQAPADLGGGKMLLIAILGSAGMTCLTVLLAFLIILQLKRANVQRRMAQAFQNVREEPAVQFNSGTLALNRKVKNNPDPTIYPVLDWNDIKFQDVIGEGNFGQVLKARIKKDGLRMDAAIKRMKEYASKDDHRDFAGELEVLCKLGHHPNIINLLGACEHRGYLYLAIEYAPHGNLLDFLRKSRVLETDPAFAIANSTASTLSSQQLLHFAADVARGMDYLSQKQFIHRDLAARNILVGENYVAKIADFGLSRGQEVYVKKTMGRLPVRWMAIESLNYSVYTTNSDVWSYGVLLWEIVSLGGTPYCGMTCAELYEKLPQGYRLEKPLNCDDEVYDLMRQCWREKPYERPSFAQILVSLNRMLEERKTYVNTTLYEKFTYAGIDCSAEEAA
Assay [1] deals with mouse lung tissue blood vessels. Description: Tissue model for angiogenesis (TMA), lung tissue vessel sprouting. The following applies: 15.6 μM; observed on the 5th day. As for the experimental part: A novel tissue model for angiogenesis that imitated new blood vessels formation in vivo had been established in the previous study.
Figure 8 Anti-angiogenesis potency of compound CDAU-2 in tissue model for angiogenesis (TMA). (A–F) the representative images of lung tissue blood vessels in the TMA on the 5th day; (A) the untreated control group; (B–F) lung tissue vessels in the CDAU-2 treated group; (B) 1.94 μM; (C) 3.87 μM; (D) 7.75 μM; (E) 15.6 μM; (F) 62.5 μM.
In brief, the mouse lung tissue was separated and cut into pieces (0.5–1.0 mm^3)[27]. Then pieces of lung tissue were placed onto 48-well plate coated with polymerized fibrinogen with thrombin. After consolidation, each group was incubated with 200 μL/well 1640 medium containing different concentrations of CDAU-2. Control groups were incubated with 2.5% DMSO or 1640 medium alone.

The target of a further assay is B-Raf (Homo sapiens, UniProt P15056). Description: Kinase selectivity assay, B-Raf. The class given is biochemical. The following applies: Table 3 selectivity profile.
B-Raf, sequence (P15056 whole entry, species assumed): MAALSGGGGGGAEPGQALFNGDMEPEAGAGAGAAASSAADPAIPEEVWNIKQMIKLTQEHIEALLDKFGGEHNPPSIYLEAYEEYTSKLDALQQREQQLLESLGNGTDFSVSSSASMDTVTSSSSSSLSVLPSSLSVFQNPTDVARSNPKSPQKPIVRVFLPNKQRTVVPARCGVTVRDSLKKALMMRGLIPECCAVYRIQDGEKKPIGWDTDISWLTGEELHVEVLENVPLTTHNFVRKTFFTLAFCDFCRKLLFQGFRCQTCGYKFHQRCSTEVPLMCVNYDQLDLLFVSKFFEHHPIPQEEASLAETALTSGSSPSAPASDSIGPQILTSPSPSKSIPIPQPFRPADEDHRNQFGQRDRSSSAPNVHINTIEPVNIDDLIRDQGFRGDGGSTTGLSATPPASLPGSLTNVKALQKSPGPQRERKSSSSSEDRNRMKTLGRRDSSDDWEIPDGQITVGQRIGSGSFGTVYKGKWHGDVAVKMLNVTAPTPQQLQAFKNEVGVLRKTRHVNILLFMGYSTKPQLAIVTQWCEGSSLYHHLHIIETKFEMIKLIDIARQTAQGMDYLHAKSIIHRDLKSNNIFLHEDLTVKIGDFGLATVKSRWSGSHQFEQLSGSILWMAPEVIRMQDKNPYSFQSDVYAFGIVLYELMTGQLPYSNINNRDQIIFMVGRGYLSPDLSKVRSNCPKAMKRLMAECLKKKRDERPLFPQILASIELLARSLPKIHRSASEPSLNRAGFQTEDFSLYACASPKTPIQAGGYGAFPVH
Another assay has as its target FGFR-1 (Homo sapiens, UniProt P11362). Description: Kinase selectivity assay, FGFR-1. The assay is classed as biochemical. Conditions: Table 3 selectivity profile.

As a reminder, the IC50 is the point on the concentration scale where inhibition reaches its midpoint.

Bounds are passed on as bounds.

Src, sequence (P12931 whole entry, species assumed): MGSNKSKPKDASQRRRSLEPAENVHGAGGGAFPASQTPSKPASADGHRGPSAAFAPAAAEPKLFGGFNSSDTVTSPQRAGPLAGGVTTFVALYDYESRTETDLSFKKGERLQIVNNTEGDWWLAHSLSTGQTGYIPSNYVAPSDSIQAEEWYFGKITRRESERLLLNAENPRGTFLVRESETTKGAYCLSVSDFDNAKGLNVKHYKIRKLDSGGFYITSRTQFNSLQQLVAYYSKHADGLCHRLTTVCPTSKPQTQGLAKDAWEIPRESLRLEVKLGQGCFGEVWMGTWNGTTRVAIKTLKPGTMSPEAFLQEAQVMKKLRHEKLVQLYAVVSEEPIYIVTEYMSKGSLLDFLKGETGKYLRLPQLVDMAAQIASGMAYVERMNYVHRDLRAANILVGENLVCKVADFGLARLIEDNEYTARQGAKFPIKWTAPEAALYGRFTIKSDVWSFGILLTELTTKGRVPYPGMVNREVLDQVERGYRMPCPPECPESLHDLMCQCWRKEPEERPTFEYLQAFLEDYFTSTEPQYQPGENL
FGFR-1, sequence (P11362 22-822, species assumed): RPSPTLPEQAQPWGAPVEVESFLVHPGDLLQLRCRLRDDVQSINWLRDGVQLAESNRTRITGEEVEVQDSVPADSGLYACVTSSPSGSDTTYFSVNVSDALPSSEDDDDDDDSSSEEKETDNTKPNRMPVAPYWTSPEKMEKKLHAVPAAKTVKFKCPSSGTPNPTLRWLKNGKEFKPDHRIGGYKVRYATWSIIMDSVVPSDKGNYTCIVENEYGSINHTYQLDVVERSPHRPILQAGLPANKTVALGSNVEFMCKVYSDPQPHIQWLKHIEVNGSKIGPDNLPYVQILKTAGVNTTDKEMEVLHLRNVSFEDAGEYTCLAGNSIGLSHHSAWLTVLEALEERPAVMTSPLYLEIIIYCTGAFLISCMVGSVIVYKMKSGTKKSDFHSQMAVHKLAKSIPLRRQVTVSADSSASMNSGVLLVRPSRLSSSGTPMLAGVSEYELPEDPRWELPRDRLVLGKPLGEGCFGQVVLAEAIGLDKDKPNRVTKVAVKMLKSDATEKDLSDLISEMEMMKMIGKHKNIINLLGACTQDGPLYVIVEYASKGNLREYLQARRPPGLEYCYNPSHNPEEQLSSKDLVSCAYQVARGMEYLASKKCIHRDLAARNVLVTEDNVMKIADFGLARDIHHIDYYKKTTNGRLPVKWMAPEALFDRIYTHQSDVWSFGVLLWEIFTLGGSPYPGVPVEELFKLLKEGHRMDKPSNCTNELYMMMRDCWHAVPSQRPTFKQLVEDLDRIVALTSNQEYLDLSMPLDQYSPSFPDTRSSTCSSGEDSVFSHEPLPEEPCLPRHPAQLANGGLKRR

With `O=C(Nc1ccc(-c2ccc(NC(=O)C3CC3)nc2)cc1)Nc1ccc(Cl)c(C(F)(F)F)c1` [CDAU-2], the IC50 at Src was above 500 nM; at EphB4 it was 5.11 nM; on VEGFR-2, 1.01 nM; on EGFR, 191 nM; in the assay on EA.hy926, 14500 nM; on TIE-2, 8.32 nM. Besides, the IC50 worked out at 34.6 nM on B-Raf and 317 nM against FGFR-1. The “Anti-angiogenesis potency: inhibition of vessel outgrowth from lung tissue” value in assay [1] is recorded as “inhibited vessels outgrew from the periphery of the lung tissues evidently”.

Source of the values: PMC5362808, “Discovery of multi-target receptor tyrosine kinase inhibitors as novel anti-angiogenesis agents” (Scientific Reports, 2017).
